Test results published in patent publication US20200068887A1, “TREATMENT FOR REMOVING ECTOPARASITES FROM FISH” (priority 2016, published 2020).
“And” between values parts separate entries of the source, which are not always exact repeats. Equal values may be shown once.

Key:
farmed Atlantic salmon = assay: Observation of fish during field treatment; assay type: in vivo; settings: 20 ppm, 60 minutes, well boat
Procedure: The effectiveness of imidacloprid against pre-adult and adult stages of L. salmonis and Caligus sp. infections on farmed Atlantic salmon was investigated by performing pre- and post-treatment sea lice counts on salmon undergoing a treatment with imidacloprid. This trial was conducted at a commercial salmon farm in Norway. The salmon were pumped onto a well boat and were exposed to 20 ppm imidacloprid for 60 minutes. The average weight of the salmon was 3.5 kg and the average number of salmon per pen was 180,000. 30 fish per pen were assessed for L. salmonis and Caligus sp., and the number of each L. salmonis life stage found was recorded. This was performed within 24 hours prior to treatment, and within 24 hours after treatment.
The numbers of sea lice observed per fish for this trial for each of the four tested pens according to sea lice life cycle state, pre- or post-administration of active are presented in Table 5.

[1] = tested on: pre-adult and adult sea lice; assay: Timescale of effect of imidacloprid against sea lice on killed salmon hosts; assay type: in vivo; settings: for lice that left the host: around 12° C.
Procedure: To determine the timescale of the effect of imidacloprid, salmon infected with pre-adult and adult sea lice were removed from a stock tank and killed using a sharp blow to the head.
For fish exposed to 0 ppm imidacloprid (negative controls), observations were made for 60 minutes. […] Three fish per treatment group were tested.
Observations on the time at which lice left the host, and the sex and stage of the sea louse was noted. Any lice that left the host were transferred to clean sea water immediately. Furthermore, any lice remaining on the host at the end of the exposure period were removed from the host and transferred to clean sea water.
Lice were observed both shortly after and approximately 2 hours after the end of the exposure period.
The ratio of male to female sea lice was around 50:50. The water temperature was around 12° C.

sea lice = assay: Comparison on isolated sea lice (in vitro bath exposure); settings: 60 min exposure; for % effect / Immobilised / Live: registered approx. 20 h after end of exposure
Procedure: Both pre-adult and adult stages (mobile stages) of both sexes were used, and they were equally distributed among groups. The sea lice were exposed to imidacloprid for 60 minutes, azamethiphos for 60 minutes and deltamethrin for 30 minutes in one litre baths at a range of concentrations (Tables 6, 7 and 8). The sea lice were transferred to clean aerated seawater after treatment. The temperature of the seawater during the experiment was 12° C., but during exposure the temperature raised to approx. 14° C. in regimes exposed for 60 min. (imidacloprid and azamethiphos) and to 13° C. for the regime exposed in 30 minutes (deltamethrin).
The numbers of live and immobilised (including killed) lice in each regime were registered approximately 20 h after end of exposure. Each louse was individually investigated.

salmon louse [2] = assay: Bath treatment of lice-infected Atlantic salmon, percent lice removed; assay type: in vivo; settings: 12° C.
Procedure: To determine the concentration- and time-dependence of imidacloprid treatment in vivo, Atlantic salmon (average of 320.9 g) were challenged with imidacloprid in seawater (32.5%0 salinity) at 12° C. The water level in the tank was lowered and aeration was employed during administration of the active. The salmon louse copepodid culture was counted and adjusted to obtain a target level of around 40 copepodids per fish in the challenge tank at each challenge time point.
Salmon lice on the fish were counted using standard methods. Only lice on the fish's outer surface, not including gills and oral/buccal cavities, were investigated.
(§1) Numbers of dissociated lice in tank water or attached to the tank walls were recorded. Lice in the tank water were collected and assessed for ability to attach by suction to a smooth plastic surface immediately after treatment and again after 30-60 minutes (to assess possible revival). Live and viable lice were also collected from the mock-treated control groups for reference and held in revival chambers for the same period of time to assess the system.
The test solutions of the active were prepared (added and homogenised with seawater) and administered to a treatment volume of 40 litres.
Three sea lice-infected fish from the holding tank were randomly gathered and carefully steered into a barrel forming an inner compartment (diameter=34.5-40 cm; height=54 cm) that was submerged in the tank and in which the base has been replaced with a plastic mesh screen with 9 mm^2 square holes.
The fish were transferred to the inner compartment within 3 minutes of each test start. The inner compartment was suspended/submerged in the holding tank pending treatment. Treatments and mock treatments were implemented by draining the inner compartment with fish and transferring it to a barrel containing the test solution. Treatments/mock treatments were performed in static water with aeration/oxygenation. Aeration was adjusted to set the oxygen saturation to 70-100%.
To terminate the treatment, the inner compartment with treated fish was lifted to the surface and drained, then fish were transferred directly and without water to a second basin with a lethal overdose of anaesthetic and left until dead. All lice remaining on these fish and lice that fell off in the anaesthetic bath were recorded.
Exposure times with imidacloprid ranged from 3 to 60 minutes, and doses ranged from 20 ppm to 200 ppm.
Negative control groups at 3- and 60 minutes were duplicated. Superscript numbers denote the total number of lice on the 3 fish in each test.
By way of comparison, fish infected with sea lice from the same sources were treated with azamethiphos at 0.1 mg/l and deltamethrin at 0.2 μ/l for 30 minutes, per the recommended dosage regimes. Treatments were carried out under similar conditions as those treated with imidacloprid. A mock-treatment control was also administered. Each treatment condition was administered in duplicate.
Superscript numbers denote the total number of lice on the 3 fish in each test.

salmon louse [3] = assay: Revival rates of sea lice after bath treatment; assay type: in vivo
Procedure: as §1
Remaining lice in the treatment bath were strained through a plankton mesh (2 mm pore size) that was suspended in a water bath with clean seawater. The lice in this collector were transferred to a plastic beaker (1 litre) and then again into a revival tube (5 cm diameter; 10 cm length). Lice that are able to attach to the walls of the treatment tanks or beaker within 3 minutes of completion of each test were scored as viable.

[4] = isolated sea lice, immobilisation approx. 20 h after exposure

## O=[N+]([O-])NC1=NCCN1Cc1ccc(Cl)nc1 [imidacloprid]
Farmed Atlantic salmon
  adverse behaviours of fish throughout treatment: no adverse behaviours seen
[1]; 20 mg/L, 30 minutes post-exposure, of 49 lice
  lice considered dead: two
[1]; 20 ppm, lice exposed for 30 minutes
  signs of recovery in clean sea water: No lice exposed for 30 minutes showed signs of recovery
[1]; 20 ppm, out of 49 lice
  lice deemed alive and responsive: Twelve
[1]; 50 ppm, 2 hours p.e., of 21 lice
  lice considered dead: 14 lice
[1]; 50 ppm, at 30 minutes, of 21 lice
  lice considered dead: four
[1]; 100 ppm, 2 hours p.e.
  lice considered dead: 17/28
[1]; 100 ppm, end of the exposure period, of 28 lice
  lice considered dead: four
[1]; 200 ppm, 2 hours post-exposure, of 26 lice
  lice considered dead: Six
[1]; 200 ppm, end of the exposure period, of 26 lice
  lice considered dead: four
[1]; 500 ppm, 30 minutes p.e., out of 20 lice
  lice considered dead: Six
[1]; 500 ppm, 2 hours p.e.
  lice considered dead: 15/20
[1]; 500 ppm, within the first 9 minutes
  lice that left the host: around 70%
[1]; between 20 and 200 ppm, within the first 15 minutes
  lice that left the host: around 50%
Sea lice; imidacloprid 5 ppm
  % effect: 30%
  Immobilised: 3
  Live: 7
Sea lice; imidacloprid 10 ppm
  % effect: 40% and 50%
  Immobilised: 4 and 5
  Live: 6 and 5
Sea lice; imidacloprid 15 ppm
  % effect: 100%
  Immobilised: 10
  Live: 0
Sea lice; imidacloprid 20 ppm
  % effect: 100%
  Immobilised: 10
  Live: 0
Sea lice; imidacloprid 30 ppm
  % effect: 100%
  Immobilised: 10
  Live: 0
Sea lice; [4]
  estimated EC90 value: 14.4 ppm
  estimated ECso value: 7.6 ppm
Salmon louse [2]; 20 ppm, 30 minutes, total 36 lice on 3 fish
  percentage lice removed from fish after treatment relative to total numbers of lice: 63.9^36%
Salmon louse [2]; 20 ppm, 60 minutes, total 27 lice on 3 fish
  percentage lice removed from fish after treatment relative to total numbers of lice: 74.1^27%
Salmon louse [2]; 50 ppm, 30 minutes, total 23 lice on 3 fish
  percentage lice removed from fish after treatment relative to total numbers of lice: 91.3^23%
Salmon louse [2]; 100 ppm, 3 minutes, total 43 lice on 3 fish
  percentage lice removed from fish after treatment relative to total numbers of lice: 7.0^43%
Salmon louse [2]; 100 ppm, 15 minutes, total 38 lice on 3 fish
  percentage lice removed from fish after treatment relative to total numbers of lice: 73.7^38%
Salmon louse [2]; 200 ppm, 5 minutes, total 34 lice on 3 fish
  percentage lice removed from fish after treatment relative to total numbers of lice: 55.9^34%
Salmon louse [2]; 200 ppm, 15 minutes, total 47 lice on 3 fish
  percentage lice removed from fish after treatment relative to total numbers of lice: 91.5^47%
Salmon louse [3]; 20 ppm 30 min, n lice 9
  % active at 30-60 min. post-treatment, Attached lice collected from fish: 11.1%
Salmon louse [3]; 20 ppm 30 min, n lice 23
  % active at 30-60 min. post-treatment, Detached lice collected from tank water: 4.3%
Salmon louse [3]; 20 ppm 60 min, n lice 20
  % active at 30-60 min. post-treatment, Detached lice collected from tank water: 0.0%
Salmon louse [3]; 50 ppm 30 min, n lice 31
  % active at 30-60 min. post-treatment, Detached lice collected from tank water: 0.0%
Salmon louse [3]; 100 ppm 3 min, n lice 3
  % active at 30-60 min. post-treatment, Detached lice collected from tank water: 33.3%
Salmon louse [3]; 100 ppm 15 min, n lice 28
  % active at 30-60 min. post-treatment, Detached lice collected from tank water: 0.0%
Salmon louse [3]; 200 ppm 5 min, n lice 13
  % active at 30-60 min. post-treatment, Attached lice collected from fish: 0.0%
  % active at 30-60 min. post-treatment, Detached lice collected from tank water: 0.0%
Salmon louse [3]; 200 ppm 15 min, n lice 43
  % active at 30-60 min. post-treatment, Detached lice collected from tank water: 0.0%
